Earlier results on one molecule are cited in patent US12390412B2, “Hydroglycolic cosmetic composition with a high active content” (L'OREAL, priority 2020, dated 2025).

The conditions of this series: pH of the composition about 3.0 to about 4.0, more particularly about 3.5.

On to `O=C1O[C@H]([C@@H](O)CO)C(O)=C1O` [ascorbic acid], for which the “ascorbic acid remains in a protonated, uncharged form” value is “greater than 82%”.
